Data from US10954262B2, “Tunicamycin analogues” (Oxford University Innovation Limited, priority 2017, dated 2021).
Values after ≈ are worked out from the molar mass of the structure shown. Counter-ions that a name gives are not always drawn. Like-named read-outs stand apart in the source and are kept apart here.

How the values were obtained:
[1] = system: Bacillus cereus (ATCC11778); assay: Kirby-Bauer disc diffusion susceptibility test; type: cell-based; settings: for Antibacterial activity in disc diffusion test: 5 μg per disc; for zone of inhibition at 5 µg/disc: ATCC11778, 6 mm disc impregnated with 5 μg, 20 hours, 35° C., read-out: Diffusion distance (zone diameter)
Protocol: (§1) Bioactivity was assessed using the Kirby-Bauer disc diffusion susceptibility test. Oxoid Blank Discs were impregnated with the desired test substance. A 0.5 McFarland standard inoculum was prepared by adding 3-5 single colonies to 10 mL MH broth in a 15 mL falcon tube and standardised to 0.5 McFarland standard. The inoculum was used within 10 minutes. A sterile cotton swab was dipped in the inoculum, gently pressed against the side of the tube to remove excess liquid, and generously streaked on MH agar plate to fully cover the plate. The impregnated disc was carefully placed on the agar. The plate was incubated at 35° C. for 20 hrs overnight. A digital calliper was used to measure the zone diameter. The recorded zone diameter is an average of three zone diameters measured of one zone.
(§2) Each 6 mm disc was impregnated with 5 μg of the relevant compound (TM, A, B, C, D, or any of E1 to E7), and the diffusion zone recorded after 20 hours.
(§3) Results are shown for E2 to E7 and TM. Values quoted are zone diameters, with larger numbers indicating higher antibacterial activity.

[2] = system: Bacillus subtilis (EC1524); assay: Kirby-Bauer disc diffusion susceptibility test; type: cell-based; settings: for Antibacterial activity in disc diffusion test: 5 μg per disc; for zone of inhibition at 5 µg/disc: 6 mm disc impregnated with 5 μg, 20 hours, 35° C., read-out: Diffusion distance (zone diameter)
Protocol: as §1, §2, §3

HepG2 liver cells = assay: Cell proliferation assay / cell morphology (cytotoxicity); type: cell-based, human; settings: for Minimum lethal dose: HepG2; for viable cells: human
Protocol: (§4) Underlying scaffolds A, B, C and D and lipid-varied analogues E1 to E7 were assayed for cytotoxicity towards human liver cells (Hep2G) and human kidney cells (HEK293).
(§5) Mammalian cells were cultured in DMEM medium supplemented with 10% heat inactivated fetal bovine serum (FBS, v/v). The cultures were maintained in a humidified incubator at 37° C. in 5% CO2/95% air. FBS was reduced to 2% for the cell proliferation assay.
(§6) In sterile 96-well plate, each well was seeded with 1×10^5 cells. The cells were then grown confluent overnight in 100 μL DMEM with 10% FBS. The medium was replenished with DMEM with 2% FBS and added vehicle control or test substance the next day. For test substance in methanol, stock was added to 25 μL of DMEM with 2% FBS or PBS and placed in a laminar flow hood to let the methanol evaporate (about 1-3 hrs). Once the methanol has evaporated, DMEM with 2% FBS was added to final volume of 100 μL of desired test concentration. […] Cells were grown for additional 24 hrs. The cell viability was determined by using a Promega CellTiter 96 AQueous One Solution Cell Proliferation Assay System following the manufacturer's protocol.

HEK293 kidney cells = assay: as above; type: cell-based, human; settings: for Minimum lethal dose: HEK293; for viable cells: human
Protocol: as §4, §5, §6

[3] = system: Pseudomonas aeruginosa (ATCC27853); assay: microbe, parasite or virus in culture; type: cell-based
[4] = system: Bacillus cereus (ATCC11778); assay: microbe, parasite or virus in culture; type: cell-based; settings: for MIC: MH broth, 35° C., 20-24 hours; for IC50: OD600 dose-response curve; for MBC: additional 20 hours on MH agar
[5] = system: Bacillus subtilis (EC1524); assay: microbe, parasite or virus in culture; type: cell-based; settings: for MIC: MH broth, 35° C., 20-24 hours; for IC50: OD600 dose-response curve; for MBC: additional 20 hours on MH agar
[6] = system: Pseudomonas aeruginosa (ATCC27853); assay: Kirby-Bauer disc diffusion susceptibility test; type: cell-based; settings: 6 mm disc, 5 μg
Protocol: as §1, §2
Underlying scaffolds A, B, C and D and lipid-varied analogues E1 to E7 were assayed for potency against Pseudomonas aeruginosa (ATCC27853), according to the methods of Example 2. Results of the Kirby-Bauer disc diffusion susceptibility test conducted using Pseudomonas aeruginosa (ATCC27853) as a test organism are shown in FIG. 2 and in Table 3. MIC, MBC and IC50 values were also obtained as in Example 2.

[7] = Single-dose PK study, intraperitoneal injection; type: in vivo; settings: mice
Protocol: The initial dose was 30 mg/kg. The x-axis indicates the time in hours after the initial injection and the y-axis indicates the blood plasma concentration of TM-8 in μg/mL in the mice.
A single-dose PK study was done using 16 mice at a dose of 30 mg/kg for the TM-8 analogue, di-N-octanoyl-tunicamycin. […] This study confirmed that the formulation was suitable for injections, and the drug is stable enough in physiological conditions.

[8] = system: Mycobacterium tuberculosis H37RV; assay: MIC in GAST/Fe and 7H9/ADC/Tw growth medium at 1 and 2 weeks; type: cell-based; settings: for MIC: Mycobacterium tuberculosis, H37RV

Structure (SMILES) | Antibacterial activity in disc diffusion test [1] | Antibacterial activity in disc diffusion test [2] | Minimum lethal dose (HepG2 liver cells) [µg/mL] | viable cells (HepG2 liver cells) [%] | Minimum lethal dose (HEK293 kidney cells) [µg/mL] | viable cells (HEK293 kidney cells) [%] | IC50 [3] [µg/mL] | MBC [3] [µg/mL] | MIC [3] [µg/mL] | MIC [4] [µg/mL] | IC50 [4] [µg/mL] | MBC [4] [µg/mL] | MIC [5] [µg/mL] | IC50 [5] [µg/mL] | MBC [5] [µg/mL] | Diffusion distance [6] [mm] | zone of inhibition at 5 µg/disc [2] [mm] | zone of inhibition at 5 µg/disc [1] [mm] | other results
CC(=O)N[C@H]1C(O)O[C@H](C[C@@H](O)[C@@H]2O[C@@H](n3ccc(=O)[nH]c3=O)[C@H](O)[C@@H]2O)C(O)C1O (some centres unmarked) [A, N-acetyl-tunicamyl-uracil] | completely inactive | completely inactive | – | – | – | – | – | – | – | – | – | – | – | – | – | – | – | – | –
CC(C)(C)OC(=O)NC1C(O)[C@H](O)C(CO)O[C@@H]1OC1O[C@H](C[C@@H](O)[C@@H]2O[C@@H](n3ccc(=O)[nH]c3=O)[C@H](O)[C@@H]2O)C(O)C(O)[C@H]1NC(=O)OC(C)(C)C (stereo partly drawn) [B, 10′,2″-Di-N-Boc-α-D-glucosamine-(1″-11′)-tunicamyl Uracil] | completely inactive | completely inactive | – | – | – | – | – | – | – | – | – | – | – | – | – | – | – | – | –
CC(=O)NC1C(O)[C@H](O)C(CO)O[C@@H]1OC1O[C@H](C[C@@H](O)[C@@H]2O[C@@H](n3ccc(=O)[nH]c3=O)[C@H](O)[C@@H]2O)C(O)C(O)[C@H]1NC(C)=O (stereo partly drawn) [C, α-D-N-acetylglucosamine-(1″-11′)-N-acetyl Tunicamyl Uracil] | completely inactive | completely inactive | – | – | – | – | – | – | – | – | – | – | – | – | – | – | – | – | –
CC(C)=CCC[C@H](C)CC(=O)NC1C(OC2OC(C[C@@H](O)[C@H]3O[C@@H](n4ccc(=O)[nH]c4=O)[C@H](O)[C@@H]3O)C(O)C(O)[C@H]2NC(=O)C[C@@H](C)CCC=C(C)C)OC(CO)[C@@H](O)C1O (some centres unmarked) [Compound E1, Di-N-citronoyl-tunicamycin] | – | – | >400 | > 75 | >400 | > 75 | 70.3 (≈ 80.7 µM) | > 400 | 200 (≈ 230 µM) | 100 (≈ 115 µM) | 6.29 (≈ 7.22 µM) | > 200 | 6.25 (≈ 7.18 µM) | 0.415 (≈ 0.476 µM) | > 100 | – | – | – | –
CCCCCCC(=O)NC1C(OC2OC(C[C@@H](O)[C@H]3O[C@@H](n4ccc(=O)[nH]c4=O)[C@H](O)[C@@H]3O)C(O)C(O)[C@H]2NC(=O)CCCCCC)OC(CO)[C@@H](O)C1O (some centres unmarked) [Compound E2, Di-N-heptanoyl tunicamycin] | – | – | >400 | > 75 | >400 | > 75 | 62.4 (≈ 79 µM) | > 400 | 100 (≈ 126 µM) | 100 (≈ 126 µM) | 13.3 (≈ 16.9 µM) | > 200 | 6.25 (≈ 7.9 µM) | 3.39 (≈ 4.29 µM) | > 50 | 7 | 10 | – | –
CCCCCCCC(=O)NC1C(OC2OC(C[C@@H](O)[C@H]3O[C@@H](n4ccc(=O)[nH]c4=O)[C@H](O)[C@@H]3O)C(O)C(O)[C@H]2NC(=O)CCCCCCC)OC(CO)[C@@H](O)C1O (some centres unmarked) [Compound E3, Di-N-octanoyl-tunicamycin] | – | – | >400 | – | >400 | – | 46.5 (≈ 56.8 µM) | > 400 | 100 (≈ 122 µM) | 6.25 (≈ 7.63 µM) | 0.782 (≈ 0.955 µM) | 50 (≈ 61.1 µM) | 0.78 (≈ 0.952 µM) | 0.201 (≈ 0.246 µM) | > 0.98 | 9 | 16 | 12 | Detectability in blood plasma ([7]; 6 hours after intraperitoneal injection, 30 mg/kg): easily detectable; Stability in physiological conditions ([7]; 30 mg/kg intraperitoneal): stable enough
CCCCCCCCC(=O)NC1C(OC2OC(C[C@@H](O)[C@H]3O[C@@H](n4ccc(=O)[nH]c4=O)[C@H](O)[C@@H]3O)C(O)C(O)[C@H]2NC(=O)CCCCCCCC)OC(CO)[C@@H](O)C1O (some centres unmarked) [Compound E4, Di-N-nonanoyl-tunicamycin] | – | – | >400 | > 75 | >400 | > 75 | 55 (≈ 64.9 µM) | 400 (≈ 472 µM) | 100 (≈ 118 µM) | 0.78 (≈ 0.921 µM) | 0.0723 (≈ 0.0854 µM) | 25 (≈ 29.5 µM) | 0.024 (≈ 0.0283 µM) | 0.0146 (≈ 0.0172 µM) | > 0.06 | 13 | 16 | 13 | MIC lower than naturally occurring tunicamycin TM ([8]; in some cases): approximately 5 fold
CCCCCCCCCC(=O)NC1C(OC2OC(C[C@@H](O)[C@H]3O[C@@H](n4ccc(=O)[nH]c4=O)[C@H](O)[C@@H]3O)C(O)C(O)[C@H]2NC(=O)CCCCCCCCC)OC(CO)[C@@H](O)C1O (some centres unmarked) [Compound E5, Di-N-decanoyl-tunicamycin] | – | – | >400 | > 75 | >400 | > 75 | 53.5 (≈ 61.1 µM) | 400 (≈ 457 µM) | 100 (≈ 114 µM) | 0.39 (≈ 0.446 µM) | 0.0461 (≈ 0.0527 µM) | 12.5 (≈ 14.3 µM) | 0.39 (≈ 0.446 µM) | 0.114 (≈ 0.13 µM) | > 0.39 | 12 | 10 | 9 | –
CCCCCCCCCCC(=O)NC1C(OC2OC(C[C@@H](O)[C@H]3O[C@@H](n4ccc(=O)[nH]c4=O)[C@H](O)[C@@H]3O)C(O)C(O)[C@H]2NC(=O)CCCCCCCCCC)OC(CO)[C@@H](O)C1O (some centres unmarked) [Compound E6, Di-N-undecanoyl-tunicamycin] | – | – | >400 | > 75 | >400 | > 75 | 63.2 (≈ 69.9 µM) | 400 (≈ 443 µM) | 100 (≈ 111 µM) | 0.78 (≈ 0.864 µM) | 0.0878 (≈ 0.0972 µM) | 25 (≈ 27.7 µM) | 1.56 (≈ 1.73 µM) | 0.852 (≈ 0.943 µM) | > 6.25 | 12 | 6 | 7 | 1-week MIC [8]: 2.8 µg/mL; 2-week MIC [8]: 2.8 µg/mL; MIC ([8]; 168 h, read-out: 1-week MIC): 5.6 µg/mL (≈ 6.2 µM); MIC ([8]; 336 h, read-out: 2-week MIC): 5.6 µg/mL (≈ 6.2 µM)
CCCCCCCCCCCC(=O)NC1C(OC2OC(C[C@@H](O)[C@H]3O[C@@H](n4ccc(=O)[nH]c4=O)[C@H](O)[C@@H]3O)C(O)C(O)[C@H]2NC(=O)CCCCCCCCCCC)OC(CO)[C@@H](O)C1O (some centres unmarked) [Compound E7, Di-N-dodecanoyl-tunicamycin] | – | – | >400 | > 75 | >400 | > 75 | 81.9 (≈ 88 µM) | > 400 | 200 (≈ 215 µM) | 50 (≈ 53.7 µM) | 1.4 (≈ 1.51 µM) | > 200 | 100 (≈ 107 µM) | 58.9 (≈ 63.2 µM) | > 200 | 8 | – | – | –
NC1C(O)[C@H](O)C(CO)O[C@@H]1OC1O[C@H](C[C@@H](O)[C@@H]2O[C@@H](n3ccc(=O)[nH]c3=O)[C@H](O)[C@@H]2O)C(O)C(O)[C@H]1N (stereo partly drawn) [D, α-D-glucosamine-(1″-11′)-tunicamyl Uracil Dihydrochloride] | completely inactive | completely inactive | – | – | – | – | – | – | – | – | – | – | – | – | – | – | – | – | –
